Reference: patent US8337891B2, “Enteric coated composition comprising prostaglandin analogs as chloride channel opener” (Sucampo AG, priority 2003, dated 2012)

How the values were obtained:
[1] = ratio of monocyclic/bicyclic tautomer in pH2 solvent by 1H-NMR; assay type: physicochemical
Procedure: The compound 1 (bicyclic structure, solid) was dissolved in D2O—CD3OD(1:1), which was adjusted to pH 2 with DCl. The ratio of monocyclic tautomer/bicyclic tautomer of compound 1 in the pH2 solvent was determined with ^1H-NMR.
According to the same manner described in the test example 2, the ratio of monocyclic tautomer/bicyclic tautomer of compound 2 in pH2 solvent was determined by ^1H-NMR.

[2] = tautomeric form of the solid compound; assay type: physicochemical; details: provided as a solid compound

SMILES: CCCCC(F)(F)[C@@]1(O)CC[C@H]2[C@@H](CC(=O)[C@@H]2CCCCCCC(=O)O)O1 [Compound 1, 13,14-dihydro-15-keto-16,16-difluoro-PGE1]
- Ratio of monocyclic tautomer (%) ([1]; D2O-CD3OD (1:1) adjusted to pH 2 with DCl, 1H-NMR, starting from solid bicyclic tautomer): 8.5%
- compound converted into the monocyclic tautomer ([1]; pH2 solvent, bicyclic ring opened): more than 5%
- proportion of the compound existing as the bicyclic structure [2]: ~100%
